Reference: ChEMBL document CHEMBL5154747, “Discovery of new carbonic anhydrase IX inhibitors as anticancer agents by toning the hydrophobic and hydrophilic rims of the active site to encounter the dual-tail approach” (Eur J Med Chem, 2022)

Tests used:
HCT-116 = experiment: Anticancer activity against human HCT-116 cells assessed as cell growth inhibition at 10 uM incubated for 48 hrs by SRB assay relative to control; assay type: functional; details: read-out: GI
BT-549 = experiment: Anticancer activity against human BT-549 cells assessed as cell growth inhibition at 10 uM incubated for 48 hrs by SRB assay relative to control; assay type: functional; details: read-out: GI
SN12C = experiment: Anticancer activity against human SN12C cells assessed as cell growth inhibition at 10 uM incubated for 48 hrs by SRB assay relative to control; assay type: functional; details: read-out: GI
HL-60(TB) = experiment: Anticancer activity against human HL-60(TB) cells assessed as cell growth inhibition at 10 uM incubated for 48 hrs by SRB assay relative to control; assay type: functional; details: read-out: GI
HCC 2998 = experiment: Anticancer activity against human HCC 2998 cells assessed as cell growth inhibition at 10 uM incubated for 48 hrs by SRB assay relative to control; assay type: functional; details: read-out: GI
KM12 = experiment: Anticancer activity against human KM12 cells assessed as cell growth inhibition at 10 uM incubated for 48 hrs by SRB assay relative to control; assay type: functional; details: read-out: GI
IGROV-1 = experiment: Anticancer activity against human IGROV-1 cells assessed as cell growth inhibition at 10 uM incubated for 48 hrs by SRB assay relative to control; assay type: functional; details: read-out: GI
PC-3 = experiment: Anticancer activity against human PC-3 cells assessed as cell growth inhibition at 10 uM incubated for 48 hrs by SRB assay relative to control; assay type: functional; details: read-out: GI
SF-268 = experiment: Anticancer activity against human SF-268 cells assessed as cell growth inhibition at 10 uM incubated for 48 hrs by SRB assay relative to control; assay type: functional; details: read-out: GI
UO-31 = experiment: Anticancer activity against human UO-31 cells assessed as cell growth inhibition at 10 uM incubated for 48 hrs by SRB assay relative to control; assay type: functional; details: read-out: GI
NCI/ADR-RES = experiment: Anticancer activity against human NCI/ADR-RES cells assessed as cell growth inhibition at 10 uM incubated for 48 hrs by SRB assay relative to control; assay type: functional; details: read-out: GI
OVCAR-8 = experiment: Anticancer activity against human OVCAR-8 cells assessed as cell growth inhibition at 10 uM incubated for 48 hrs by SRB assay relative to control; assay type: functional; details: read-out: GI
HOP-62 = experiment: Anticancer activity against human HOP-62 cells assessed as cell growth inhibition at 10 uM incubated for 48 hrs by SRB assay relative to control; assay type: functional; details: read-out: GI
MOLT-4 = experiment: Anticancer activity against human MOLT-4 cells assessed as cell growth inhibition at 10 uM incubated for 48 hrs by SRB assay relative to control; assay type: functional; details: read-out: GI
SR = experiment: Anticancer activity against human SR cells assessed as cell growth inhibition at 10 uM incubated for 48 hrs by SRB assay relative to control; assay type: functional; details: read-out: GI
SK-MEL-2 = experiment: Anticancer activity against human SK-MEL-2 cells assessed as cell growth inhibition at 10 uM incubated for 48 hrs by SRB assay relative to control; assay type: functional; details: read-out: GI
Hs-578T = experiment: Anticancer activity against human Hs-578T cells assessed as cell growth inhibition at 10 uM incubated for 48 hrs by SRB assay relative to control; assay type: functional; details: read-out: GI
EKVX = experiment: Anticancer activity against human EKVX cells assessed as cell growth inhibition at 10 uM incubated for 48 hrs by SRB assay relative to control; assay type: functional; details: read-out: GI
NCI-H226 = experiment: Anticancer activity against human NCI-H226 cells assessed as cell growth inhibition at 10 uM incubated for 48 hrs by SRB assay relative to control; assay type: functional; details: read-out: GI
OVCAR-5 = experiment: Anticancer activity against human OVCAR-5 cells assessed as cell growth inhibition at 10 uM incubated for 48 hrs by SRB assay relative to control; assay type: functional; details: read-out: GI
NCI-H460 = experiment: Anticancer activity against human NCI-H460 cells assessed as cell growth inhibition at 10 uM incubated for 48 hrs by SRB assay relative to control; assay type: functional; details: read-out: GI
COLO 205 = experiment: Anticancer activity against human COLO 205 cells assessed as cell growth inhibition at 10 uM incubated for 48 hrs by SRB assay relative to control; assay type: functional; details: read-out: GI
UACC-62 = experiment: Anticancer activity against human UACC-62 cells assessed as cell growth inhibition at 10 uM incubated for 48 hrs by SRB assay relative to control; assay type: functional; details: read-out: GI
MCF7 = experiment: Anticancer activity against human MCF7 cells assessed as cell growth inhibition at 10 uM incubated for 48 hrs by SRB assay relative to control; assay type: functional; details: read-out: GI
SK-MEL-5 = experiment: Anticancer activity against human SK-MEL-5 cells assessed as cell growth inhibition at 10 uM incubated for 48 hrs by SRB assay relative to control; assay type: functional; details: read-out: GI
RPMI-8226 = experiment: Anticancer activity against human RPMI-8226 cells assessed as cell growth inhibition at 10 uM incubated for 48 hrs by SRB assay relative to control; assay type: functional; details: read-out: GI
MDA-MB-435 = experiment: Anticancer activity against human MDA-MB-435 cells assessed as cell growth inhibition at 10 uM incubated for 48 hrs by SRB assay relative to control; assay type: functional; details: read-out: GI
Carbonic anhydrase 9 = Carbonic anhydrase 9 (Homo sapiens, UniProt Q16790); experiment: Inhibition of recombinant human CA 9 preincubated for 15 mins by phenol red dye based stopped flow CO2 hydration assay
T47D = experiment: Anticancer activity against human T47D cells assessed as cell growth inhibition at 10 uM incubated for 48 hrs by SRB assay relative to control; assay type: functional; details: read-out: GI
ACHN = experiment: Anticancer activity against human ACHN cells assessed as cell growth inhibition at 10 uM incubated for 48 hrs by SRB assay relative to control; assay type: functional; details: read-out: GI
786-0 = experiment: Anticancer activity against human 786-0 cells assessed as cell growth inhibition at 10 uM incubated for 48 hrs by SRB assay relative to control; assay type: functional; details: read-out: GI
U-251 = experiment: Anticancer activity against human U-251 cells assessed as cell growth inhibition at 10 uM incubated for 48 hrs by SRB assay relative to control; assay type: functional; details: read-out: GI
TK-10 = experiment: Anticancer activity against human TK-10 cells assessed as cell growth inhibition at 10 uM incubated for 48 hrs by SRB assay relative to control; assay type: functional; details: read-out: GI
SNB-19 = experiment: Anticancer activity against human SNB-19 cells assessed as cell growth inhibition at 10 uM incubated for 48 hrs by SRB assay relative to control; assay type: functional; details: read-out: GI
MDA-MB-468 = experiment: Anticancer activity against human MDA-MB-468 cells assessed as cell growth inhibition at 10 uM incubated for 48 hrs by SRB assay relative to control; assay type: functional; details: read-out: GI
Malme-3M = experiment: Anticancer activity against human Malme-3M cells assessed as cell growth inhibition at 10 uM incubated for 48 hrs by SRB assay relative to control; assay type: functional; details: read-out: GI
UACC-257 = experiment: Anticancer activity against human UACC-257 cells assessed as cell growth inhibition at 10 uM incubated for 48 hrs by SRB assay relative to control; assay type: functional; details: read-out: GI
OVCAR-3 = experiment: Anticancer activity against human OVCAR-3 cells assessed as cell growth inhibition at 10 uM incubated for 48 hrs by SRB assay relative to control; assay type: functional; details: read-out: GI
MDA-MB-231 = experiment: Anticancer activity against human MDA-MB-231 cells assessed as cell growth inhibition at 10 uM incubated for 48 hrs by SRB assay relative to control; assay type: functional; details: read-out: GI
A549 = experiment: Anticancer activity against human A549 cells assessed as cell growth inhibition at 10 uM incubated for 48 hrs by SRB assay relative to control; assay type: functional; details: read-out: GI

Structure (SMILES)	inhibition of growth at 10 µM (HCT-116)	inhibition of growth at 10 µM (BT-549)	inhibition of growth at 10 µM (SN12C)	inhibition of growth at 10 µM (HL-60(TB))	inhibition of growth at 10 µM (HCC 2998)	inhibition of growth at 10 µM (KM12)	inhibition of growth at 10 µM (IGROV-1)	inhibition of growth at 10 µM (PC-3)	inhibition of growth at 10 µM (SF-268)	inhibition of growth at 10 µM (UO-31)	inhibition of growth at 10 µM (NCI/ADR-RES)	inhibition of growth at 10 µM (OVCAR-8)	inhibition of growth at 10 µM (HOP-62)	inhibition of growth at 10 µM (MOLT-4)	inhibition of growth at 10 µM (SR)	inhibition of growth at 10 µM (SK-MEL-2)	inhibition of growth at 10 µM (Hs-578T)	inhibition of growth at 10 µM (EKVX)	inhibition of growth at 10 µM (NCI-H226)	inhibition of growth at 10 µM (OVCAR-5)	other results
NS(=O)(=O)c1ccc(Nc2nc(N/N=C/c3ccc4c(c3)OCO4)nc(Nc3ccccc3)n2)cc1	63%	23%	45%	68%	76%	29%	63%	40%	57%	23%	< 10%	50%	70%	88%	79%	44%	47%	26%	34%	< 10%	inhibition of growth at 10 µM (NCI-H460): 97%; inhibition of growth at 10 µM (COLO 205): 50%; inhibition of growth at 10 µM (UACC-62): 21%; inhibition of growth at 10 µM (MCF7): 81%; inhibition of growth at 10 µM (SK-MEL-5): 45%; inhibition of growth at 10 µM (RPMI-8226): 45%; inhibition of growth at 10 µM (MDA-MB-435): 40%; Ki (Carbonic anhydrase 9): 0.0293 µM; inhibition of growth at 10 µM (T47D): 45%; inhibition of growth at 10 µM (ACHN): 42%; inhibition of growth at 10 µM (786-0): 38%; inhibition of growth at 10 µM (U-251): 44%; inhibition of growth at 10 µM (TK-10): < 10%; inhibition of growth at 10 µM (SNB-19): 44%; inhibition of growth at 10 µM (MDA-MB-468): 53%; inhibition of growth at 10 µM (Malme-3M): 41%; inhibition of growth at 10 µM (UACC-257): 15%; inhibition of growth at 10 µM (OVCAR-3): 51%; inhibition of growth at 10 µM (MDA-MB-231): 40%; inhibition of growth at 10 µM (A549): 25%
Cc1nn(-c2ccccc2)cc1/C=N/Nc1nc(Nc2ccccc2)nc(Nc2ccc(S(N)(=O)=O)cc2)n1	59%	78%	100%	96%	117%	90%	86%	98%	107%	104%	23%	81%	90%	93%	66%	45%	86%	81%	159%	113%	inhibition of growth at 10 µM (NCI-H460): 135%; inhibition of growth at 10 µM (COLO 205): 122%; inhibition of growth at 10 µM (UACC-62): 127%; inhibition of growth at 10 µM (MCF7): 169%; inhibition of growth at 10 µM (SK-MEL-5): 144%; inhibition of growth at 10 µM (RPMI-8226): 123%; inhibition of growth at 10 µM (MDA-MB-435): 131%; Ki (Carbonic anhydrase 9): 0.207 µM; inhibition of growth at 10 µM (T47D): 81%; inhibition of growth at 10 µM (ACHN): 100%; inhibition of growth at 10 µM (786-0): 147%; inhibition of growth at 10 µM (U-251): 122%; inhibition of growth at 10 µM (TK-10): 55%; inhibition of growth at 10 µM (SNB-19): 92%; inhibition of growth at 10 µM (MDA-MB-468): 137%; inhibition of growth at 10 µM (Malme-3M): 125%; inhibition of growth at 10 µM (UACC-257): 44%; inhibition of growth at 10 µM (OVCAR-3): 131%; inhibition of growth at 10 µM (MDA-MB-231): 120%; inhibition of growth at 10 µM (A549): 128%
NNc1nc(Nc2ccccc2)nc(Nc2ccc(S(N)(=O)=O)cc2)n1	< 10%	< 10%	< 10%	< 10%	< 10%	< 10%	< 10%	< 10%	< 10%	13%	< 10%	< 10%	< 10%	81%	32%	< 10%	< 10%	< 10%	< 10%	< 10%	inhibition of growth at 10 µM (NCI-H460): < 10%; inhibition of growth at 10 µM (COLO 205): < 10%; inhibition of growth at 10 µM (UACC-62): < 10%; inhibition of growth at 10 µM (MCF7): < 10%; inhibition of growth at 10 µM (SK-MEL-5): < 10%; inhibition of growth at 10 µM (RPMI-8226): < 10%; inhibition of growth at 10 µM (MDA-MB-435): < 10%; inhibition of growth at 10 µM (T47D): < 10%; inhibition of growth at 10 µM (ACHN): < 10%; inhibition of growth at 10 µM (786-0): < 10%; inhibition of growth at 10 µM (U-251): < 10%; inhibition of growth at 10 µM (TK-10): < 10%; inhibition of growth at 10 µM (SNB-19): < 10%; inhibition of growth at 10 µM (MDA-MB-468): < 10%; inhibition of growth at 10 µM (Malme-3M): < 10%; inhibition of growth at 10 µM (UACC-257): < 10%; inhibition of growth at 10 µM (OVCAR-3): < 10%; inhibition of growth at 10 µM (MDA-MB-231): < 10%; inhibition of growth at 10 µM (A549): < 10%
